Measurements as given in US20260327240A1, “1,4-CINEOLE DERIVATIVE AND INTERMEDIATE THEREOF, HERBICIDE CONTAINING SAID DERIVATIVE AS ACTIVE INGREDIENT, METHOD FOR USING HERBICIDE, AND METHOD FOR PREPARING AGROCHEMICAL COMPOSITION” (HOKKO CHEMICAL INDUSTRY CO., LTD., priority 2023, published 2026).

Experiments:
Format in all cases: in vivo
[1] = system: Scirpus juncoides; assay: Test Example 2: herbicidal effect test by application during growth period of paddy rice; settings: Schoenoplectiella juncoides, 7 days after sowing, 120 g per 10 ares, 14 days after application, read-out: weed inhibition rate
Procedure, shortened: (§1)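 Flooded paddy-soil pots (about 3 cm water) sown with 30 seeds per weed species and kept in a greenhouse. Emulsifiable concentrate applied by dropper seven days after sowing at 120 g active ingredient per 10 ares, in duplicate. Herbicidal effect scored 14 days after application.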

[2] = system: Echinochloa crus-galli var. formosensis; assay: as above; settings: Echinochloa crus-galli, 7 days after sowing, 120 g per 10 ares, 14 days after application, read-out: weed inhibition rate
Procedure, shortened: as §1

[3] = system: Scirpus juncoides; assay: Test Example 1: herbicidal effect test by soil application in paddy rice; settings: Schoenoplectiella juncoides, 336 h, 120 g per 10 ares, 14 days after application, read-out: weed inhibition rate
Procedure, shortened: (§2)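 Paddy soil in flooded Wagner pots (~3 cm water), weed seeds sown at 0–1 cm depth, greenhouse; emulsifiable concentrate diluted in water and applied by dropper immediately after sowing at 120 g active ingredient per 10 ares. Duplicate pots; weed inhibition rate (%) scored 14 days after application.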

[4] = system: Echinochloa crus-galli var. formosensis; assay: as above; settings: Echinochloa crus-galli, 336 h, 120 g per 10 ares, 14 days after application, read-out: weed inhibition rate
Procedure, shortened: as §2

[5] = system: Monochoria vaginalis; assay: as above; settings: Pontederia vaginalis, 336 h, 120 g per 10 ares, 14 days after application, read-out: weed inhibition rate
Procedure, shortened: as §2

Measured: inhibition at 1200 g/ha

CCOC(C)O[C@H]1C[C@]2(C)O[C@@]1(C(C)C)C[C@H]2OCc1ccccc1F (stereo partly drawn) [1-213, (1R,2S,4S,5R)-2-(1-ethoxyethoxy)-5-((2-fluorobenzyl)oxy)-1-isopropyl-4-methyl-7-oxabicyclo[2.2.1]heptane]
≥ 80%: all assays above
